Data on two compounds can be found in US20260158015A1 (Universite De Bordeaux, priority 2021, published 2026).

Usually CC50 stands for the concentration giving 50% cytotoxicity. Lower therefore signals harm at low concentration. By inhibition is commonly meant the change of the read-out against control, counted positive when it falls.

SMILES strings stand for the structures.

Data set [1] in a line: MTT cytotoxicity (CC50) in A549-ACE2 cells. The class given is cell-based. Conditions: human, A 549-ACE2 cells, four-parameter sigmoidal fit, unit inferred. As for the experimental part:
(§1) MTT cell viability assay was performed following furnisher protocols. Cells were seeded at the density of 20,000 cells/well in a 96 well plate containing 100 μL complete DMEM (Gibco, USA) supplemented with 10% FBS (Gibco, USA) and 1% Penstrep (Gibco, USA). Cells were incubated for 12 hours at 37° C. in humidified 5% CO2 incubator for adherence. After 12-hour incubation, the media was replaced with fresh media, and cells were treated with compounds. Untreated cells were considered as negative control, DMSO treated cells were considered as the vehicles. After the treatment, cells were incubated at 37° C. in humidified 5% CO2 incubator. 48-hour post-treatment, 20 μL of MTT substrate (5 mg/mL) was added in each well and incubated for 4 additional hours at 37° C. in the dark. The media was then carefully removed, and 492 nm absorbance was measured.

The test system of data set [2] is SARS-CoV-2 reference strain. As to the kind of experiment: SARS-CoV-2 replication in Calu3 cells (viral genome copies, RT-qPCR). The class given is cell-based. In general terms: Quantitative PCR measures a nucleic acid by following its amplification.
The nature of data set [3]: MTT cytotoxicity (CC50) in 293-ACE2 cells. The class given is cell-based. The settings on record: human, four-parameter sigmoidal fit, unit inferred. As for the experimental part: as §1
For the next data set, the system named is SARS-CoV-2. As to the kind of experiment: SARS-CoV-2 inhibition summarised over all the cell lines. The settings on record: Severe acute respiratory syndrome coronavirus 2. In kind it is cell-based.
A further data set deals with VSVg pseudotyped LV. The class given is cell-based.
Data set [4] has as its system HEK-293T, A549, Calu3 and Caco2 cell lines.
Data set [5] can be described thus: MTT cytotoxicity (CC50) in Calu3 cells. The class given is cell-based. The settings on record: human, four-parameter sigmoidal fit, unit inferred. As for the experimental part: as §1
The test system of data set [6] is SARS-CoV-2 reference strain. As to the kind of experiment: SARS-CoV-2 replication in A549-ACE2 cells (viral genome copies, RT-qPCR). The class given is cell-based.
The subject of data set [7] is lentiviral vectors pseudotyped with the SARS-CoV-2 Spike protein (CoV-2 LV). Briefly: microbe, parasite or virus in culture. In kind it is cell-based.

`O=S(=O)(c1ccccc1)n1c(-c2cncc(-c3cc4cc(OCc5ccccc5)ccc4n3S(=O)(=O)c3ccccc3)c2)cc2cc(OCc3ccccc3)ccc21` [AB-00011778]: the 50% cytotoxic concentration (CC50) at 48 h in [1] was greater than 30 µM; in [3], greater than 50 µM; in data set [5], greater than 30 µM. Besides, the IC50 in data set [2] (Severe acute respiratory syndrome coronavirus 2, Calu-3, SARS-CoV-2 reference strain, 24 hours, read-out: concentration giving 50% inhibition of the viral replication) was roughly 1000 nM; in [2] (Severe acute respiratory syndrome coronavirus 2, Calu-3, apparent IC50, unit inferred, read-out: IC50), 1000 nM; in the data set with SARS-CoV-2 (read-out: IC50 among all the cell lines) it was 250 to 5000 nM; in [6] (Severe acute respiratory syndrome coronavirus 2, A549-ACE2, A 549-ACE2 cells, apparent IC50, unit inferred), 250 nM; in [7] (Severe acute respiratory syndrome coronavirus 2, 293-ACE2 cells, apparent IC50, unit inferred), 1000 nM. Further, in the data set on SARS-CoV-2 (at 1 μM, pulmonary A549-ACE2 and Calu3 cells, read-out: inhibition of virus replication), the inhibition at 1 µM was 40 to 60%. For the same compound, in the data set with VSVg pseudotyped LV, the “effect on the VSVg LVs infectivity” value is given as “without significant effect”. For the same compound, the “cytotoxicity in various cell lines” value in data set [4] (various cell lines, no concentration stated) is given as “without showing significant cyto-toxicity”. The “cytotoxicity (MTT assay)” value in data set [4] (within the 0-50 μM range, HEK-293T, A549, Calu3 and Caco2) is on record as “no or poor cytotoxicity”. In addition, the “comparative efficiency in inhibiting the SARS-CoV-2 replication” value in [6] is listed as “more efficient than the Ritonavir molecule”. The “decrease of the viral infectivity (CoV-2 LVs)” value in [7] was 40 to 80%.

As to `CC(C)c1nc(CN(C)C(=O)N[C@H](C(=O)N[C@@H](Cc2ccccc2)C[C@H](O)[C@H](Cc2ccccc2)NC(=O)OCc2cncs2)C(C)C)cs1` [Ritonavir, reference compound], in [6], the “comparative efficiency in inhibiting the SARS-CoV-2 replication” value was “AB-00011778 was more efficient than the Ritonavir molecule”.
